According to patent US20240254115A1 (ACONDICIONAMIENTO TARRASENSE, priority 2021, published 2024):

Experiments:
human σ2/TMEM97 receptor = target: T1, human σ2/TMEM97 receptor (Homo sapiens, UniProt Q5BJF2); assay: Binding assay to human σ2/TMEM97 receptor; conditions: transfected HEK-293 membranes, 10 nM [3H]-DTG, 25° C. 120 minutes; + may also stand for 1-50% inhibition at 1 or 10 μM; read-out: Binding σ-2 Ki
T1 construct: expressed in transfected cells; host or cells: HEK-293
Protocol: Binding Assay to Human σ2/TMEM97 Receptor
Transfected HEK-293 membranes (15 μg) were incubated with 10 nM [^3H]-1,3-Di-o-tolylguanidine (DTG) in assay buffer containing Tris-HCl 50 mM at pH 8.0. NSB (non-specific binding) was measured by adding 10 μM haloperidol. The binding of the test compound was measured at either one concentration (% inhibition at 1 or 10 μM) or five different concentrations to determine affinity values (Ki). Plates were incubated at 25° C. for 120 minutes. After the incubation period, the reaction mix was transferred to MultiScreen HTS, FC plates (Millipore), filtered and washed 3 times with ice-cold 10 mM Tris-HCL (pH 8.0). Filters were dried and counted at approximately 40% efficiency in a MicroBeta scintillation counter (Perkin-Elmer) using EcoScint liquid scintillation cocktail.

human σ1 receptor = target: T2, human σ1 receptor (Homo sapiens, UniProt Q99720); assay: Human σ1 receptor radioligand assay; conditions: transfected HEK-293 membranes, 5 nM [3H](+)-pentazocine, 37° C. 120 minutes; + may also stand for 1-50% inhibition at 1 or 10 μM; read-out: Binding σ-1 Ki
T2 construct: expressed in transfected cells; host or cells: HEK-293
T2 sequence (Q99720 whole entry): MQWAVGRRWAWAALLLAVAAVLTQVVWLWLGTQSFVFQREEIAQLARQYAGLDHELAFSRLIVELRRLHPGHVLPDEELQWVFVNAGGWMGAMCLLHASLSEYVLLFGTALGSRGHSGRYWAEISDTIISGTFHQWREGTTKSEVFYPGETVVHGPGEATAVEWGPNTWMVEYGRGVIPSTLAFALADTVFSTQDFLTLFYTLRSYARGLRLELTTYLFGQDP
Protocol: Human σ1 Receptor Radioligand Assay
Transfected HEK-293 membranes (7 μg) were incubated with 5 nM of [^3H](+)-pentazocine in assay buffer containing Tris-HCl 50 mM at pH 8. NBS (non-specific binding) was measured by adding 10 μM haloperidol. The binding of the test compound was measured at either one concentration (% inhibition at 1 or 10 μM) or five different concentrations to determine affinity values (Ki). Plates were incubated at 37° C. for 120 minutes. After the incubation period, the reaction mix was then transferred to MultiScreen HTS, FC plates (Millipore), filtered and plates were washed 3 times with ice-cold 10 mM Tris-HCL (pH7.4). Filters were dried and counted at approximately 40% efficiency in a MicroBeta scintillation counter (Perkin-Elmer) using EcoScint liquid scintillation cocktail.

T1 sequence (Q5BJF2 whole entry): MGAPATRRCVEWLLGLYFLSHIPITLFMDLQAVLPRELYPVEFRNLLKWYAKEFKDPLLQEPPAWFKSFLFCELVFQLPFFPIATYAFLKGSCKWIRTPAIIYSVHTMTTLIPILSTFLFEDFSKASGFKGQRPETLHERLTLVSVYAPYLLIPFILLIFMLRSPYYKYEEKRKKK

Structure (SMILES) | Ki (human σ2/TMEM97 receptor) [nM] | Ki (human σ1 receptor) [nM]
O=S(=O)(N[C@H]1CCN(Cc2ccccc2)C1)c1ccc(N2CCOCC2)nc1 [Example 1, (S)—N-(1-Benzylpyrrolidin-3-yl)-6-morpholinopyridine-3-sulfonamide] | > 1000 | < 100
O=S(=O)(NC1CCN(Cc2ccccc2)CC1)c1ccc(N2CCOCC2)nc1 [Example 2, N-(1-Benzylpiperidin-4-yl)-6-morpholinopyridine-3-sulfonamide] | > 1000 | < 100
O=S(=O)(N[C@@H]1CCN(Cc2ccccc2)C1)c1ccc(N2CCOCC2)nc1 [Example 3, (R)-N-(1-Benzylpyrrolidin-3-yl)-6-morpholinopyridine-3-sulfonamide] | > 1000 | < 100
CN([C@H]1CCN(Cc2ccccc2)C1)S(=O)(=O)c1ccc(N2CCOCC2)nc1 [Example 4, (S)-N-(1-Benzylpyrrolidin-3-yl)-N-methyl-6-morpholinopyridine-3-sulfonamide] | > 1000 | < 100
CN([C@@H]1CCN(Cc2ccccc2)C1)S(=O)(=O)c1ccc(N2CCOCC2)nc1 [Example 5, (R)-N-(1-Benzylpyrrolidin-3-yl)-N-methyl-6-morpholinopyridine-3-sulfonamide] | > 1000 | < 100
C[C@H]1CN(Cc2ccccc2)C[C@@H]1NS(=O)(=O)c1ccc(N2CCOCC2)nc1 [Example 6, N-((3R,4S)-1-Benzyl-4-methylpyrrolidin-3-yl)-6-morpholinopyridine-3-sulfonamide] | 500 to 1000 | < 100
O=S(=O)(NC1CCN(Cc2ccc(F)cc2)CC1)c1ccc(N2CCOCC2)nc1 [Example 7, N-(1-(4-Fluorobenzyl)piperidin-4-yl)-6-morpholinopyridine-3-sulfonamide] | > 1000 | < 100
O=S(=O)(NC1CCN(Cc2cccc(F)c2)CC1)c1ccc(N2CCOCC2)nc1 [Example 8, N-(1-(3-Fluorobenzyl)piperidin-4-yl)-6-morpholinopyridine-3-sulfonamide] | > 1000 | < 100
N#Cc1cccc(CN2CCC(NS(=O)(=O)c3ccc(N4CCOCC4)nc3)CC2)c1 [Example 9, N-(1-(3-Cyanobenzyl)piperidin-4-yl)-6-morpholinopyridine-3-sulfonamide] | > 1000 | 500 to 1000
O=S(=O)(NC1CCN(Cc2ccc(Cl)cc2)CC1)c1ccc(N2CCOCC2)nc1 [Example 10, N-(1-(4-Chlorobenzyl)piperidin-4-yl)-6-morpholinopyridine-3-sulfonamide] | > 1000 | < 100
N#Cc1ccc(CN2CCC(NS(=O)(=O)c3ccc(N4CCOCC4)nc3)CC2)cc1 [Example 11, N-(1-(4-Cyanobenzyl)piperidin-4-yl)-6-morpholinopyridine-3-sulfonamide] | > 1000 | < 100
O=S(=O)(c1ccc(N2CCOCC2)nc1)N1CCC2(CCN(Cc3ccccc3)CC2)CC1 [Example 12, 4-(5-((9-Benzyl-3,9-diazaspiro[5.5]undecan-3-yl)sulfonyl)pyridin-2-yl)morpholine] | < 100 | > 1000
O=S(=O)(c1ccc(N2CCOCC2)nc1)N1CCC2(CCN(Cc3ccccc3)C2)CC1 [Example 13, 4-(5-((2-Benzyl-2,8-diazaspiro[4.5]decan-8-yl)sulfonyl)pyridin-2-yl)morpholine] | 100 to 500 | > 1000
C[C@@H]1CN(Cc2ccccc2)C[C@H]1NS(=O)(=O)c1ccc(N2CCOCC2)nc1 [Example 14, N-((3S,4R)-1-Benzyl-4-methylpyrrolidin-3-yl)-6-morpholinopyridine-3-sulfonamide] | > 1000 | < 100
CN(CCc1ccccc1)C1CCN(S(=O)(=O)c2ccc(N3CCOCC3)nc2)CC1 [Example 15, N-Methyl-1-((6-morpholinopyridin-3-yl)sulfonyl)-N-phenethylpiperidin-4-amine] | 100 to 500 | > 1000
CN(Cc1ccccc1)C1CCN(S(=O)(=O)c2ccc(N3CCOCC3)nc2)CC1 [Example 16, N-Benzyl-N-methyl-1-((6-morpholinopyridin-3-yl)sulfonyl)piperidin-4-amine] | 100 to 500 | > 1000
CN(Cc1ccccc1)[C@H]1CCN(S(=O)(=O)c2ccc(N3CCOCC3)nc2)C1 [Example 17, (S)-N-Benzyl-N-methyl-1-((6-morpholinopyridin-3-yl)sulfonyl)pyrrolidin-3-amine] | > 1000 | < 100

Structure (SMILES) | Ki (human σ2/TMEM97 receptor) [nM] | Ki (human σ1 receptor) [nM]
CN(Cc1ccccc1)[C@H]1CC[C@H](NS(=O)(=O)c2ccc(N3CCOCC3)nc2)CC1 [Example 18, N-((1r,4r)-4-(Benzyl(methyl)amino)cyclohexyl)-6-morpholinopyridine-3-sulfonamide] | < 100 | > 1000
CN(Cc1ccccc1)[C@H]1CC[C@@H](NS(=O)(=O)c2ccc(N3CCOCC3)nc2)CC1 [Example 19, N-((1s,4s)-4-(Benzyl(methyl)amino)cyclohexyl)-6-morpholinopyridine-3-sulfonamide] | < 100 | > 1000
C[C@@H]1CN(c2ccc(S(=O)(=O)N[C@H]3CCN(Cc4ccccc4)C3)cn2)C[C@H](C)O1 [Example 20, N—((S)-1-Benzylpyrrolidin-3-yl)-6-((2R,6S)-2,6-dimethylmorpholino)pyridine-3-sulfonamide] | > 1000 | < 100
CN(C)c1ccc(S(=O)(=O)N[C@H]2CCN(Cc3ccccc3)C2)cn1 [Example 21, (S)-N-(1-Benzylpyrrolidin-3-yl)-6-(dimethylamino) pyridine-3-sulfonamide] | > 1000 | < 100
CN(C)c1ccc(S(=O)(=O)N[C@@H]2CCN(Cc3ccccc3)C2)cn1 [Example 22, (R)-N-(1-Benzylpyrrolidin-3-yl)-6-(dimethylamino) pyridine-3-sulfonamide] | > 1000 | < 100
O=S(=O)(N[C@@H]1CCN(Cc2ccccc2)C1)c1ccc(N2C[C@@H]3C[C@H]2CO3)nc1 [Example 23, N-((R)-1-Benzylpyrrolidin-3-yl)-6-((1S,4S)-2-oxa-5-azabicyclo[2.2.1]heptan-5-yl)pyridine-3-sulfonamide] | > 1000 | < 100
O=S(=O)(N[C@@H]1CCN(Cc2ccccc2)C1)c1cnc(N2CCOCC2)c(F)c1 [Example 24, (R)-N-(1-Benzylpyrrolidin-3-yl)-5-fluoro-6-morpholinopyridine-3-sulfonamide] | 500 to 1000 | < 100
O=S(=O)(N[C@H]1CCN(Cc2ccccc2)C1)c1cnc(N2CCOCC2)c(F)c1 [Example 25, (S)-N-(1-Benzylpyrrolidin-3-yl)-5-fluoro-6-morpholinopyridine-3-sulfonamide] | > 1000 | < 100
COC1CCN(c2ccc(S(=O)(=O)N[C@@H]3CCN(Cc4ccccc4)C3)cn2)CC1 [Example 26, (R)-N-(1-Benzylpyrrolidin-3-yl)-6-(4-methoxypiperidin-1-yl)pyridine-3-sulfonamide] | > 1000 | 500 to 1000
O=S(=O)(N[C@@H]1CCN(Cc2ccccc2)C1)c1ccc(N2[C@@H]3CC[C@H]2COC3)nc1 [Example 27, N-((R)-1-Benzylpyrrolidin-3-yl)-6-((1R,5S)-3-oxa-8-azabicyclo [3.2.1]octan-8-yl)pyridine-3-sulfonamide] | > 1000 | 
CN(Cc1ccc(F)cc1)[C@H]1CC[C@H](NS(=O)(=O)c2ccc(N3CCOCC3)nc2)CC1 [Example 28, N-((1r,4r)-4-((4-Fluorobenzyl)(methyl)amino)cyclohexyl)-6-morpholinopyridine-3-sulfonamide] | < 100 | > 1000
CC(C)(C)CCN1CCC2(CC1)CCN(S(=O)(=O)c1ccc(N3CCOCC3)nc1)CC2 [Example 29, 4-(5-((9-(3,3-Dimethylbutyl)-3,9-diazaspiro[5.5]undecan-3-yl)sulfonyl)pyridin-2-yl)morpholine] | < 100 | 100 to 500
CN(C)c1ccc(S(=O)(=O)N[C@H]2CC[C@H](N(C)Cc3ccccc3)CC2)cn1 [Example 30, N-((1r,4r)-4-(Benzyl (methyl)amino)cyclohexyl)-6-(dimethylamino) pyridine-3-sulfonamide] | 100 to 500 | 500 to 1000
CN(Cc1ccccc1)[C@H]1CC[C@H](NS(=O)(=O)c2ccc(N3CCC4(CCOC4)CC3)nc2)CC1 [Example 31] | < 100 | < 100
CN(Cc1ccccc1)[C@H]1CC[C@H](NS(=O)(=O)c2ccc(N3CCCOCC3)nc2)CC1 [Example 32, N-((1r,4r)-4-(Benzyl(methyl)amino)cyclohexyl)-6-(1,4-oxazepan-4-yl) pyridine-3-sulfonamide] | < 100 | 100 to 500
COc1ccc(CNC[C@H]2CCCN(S(=O)(=O)c3ccc(N4CCOCC4)nc3)C2)cn1 [Example 33, (R)-1-(6-Methoxypyridin-3-yl)-N-((1-((6-morpholinopyridin-3-yl)sulfonyl)piperidin-3-yl)methyl) methanamine] | < 100 | > 1000
